The record followed here is patent US8097654B2, “Radiolabeled 3-[3-(benzoyl-amido)benzyloxy]aspartic acid derivative and method of producing the same” (Suntory Holdings Limited, priority 2004, dated 2012).

Molecules are shown by their SMILES.

In one assay the target is T1, human EAAT3 (Homo sapiens, UniProt P43005).
T1 construct: expressed in transfected cells
T1 sequence (P43005 1-524): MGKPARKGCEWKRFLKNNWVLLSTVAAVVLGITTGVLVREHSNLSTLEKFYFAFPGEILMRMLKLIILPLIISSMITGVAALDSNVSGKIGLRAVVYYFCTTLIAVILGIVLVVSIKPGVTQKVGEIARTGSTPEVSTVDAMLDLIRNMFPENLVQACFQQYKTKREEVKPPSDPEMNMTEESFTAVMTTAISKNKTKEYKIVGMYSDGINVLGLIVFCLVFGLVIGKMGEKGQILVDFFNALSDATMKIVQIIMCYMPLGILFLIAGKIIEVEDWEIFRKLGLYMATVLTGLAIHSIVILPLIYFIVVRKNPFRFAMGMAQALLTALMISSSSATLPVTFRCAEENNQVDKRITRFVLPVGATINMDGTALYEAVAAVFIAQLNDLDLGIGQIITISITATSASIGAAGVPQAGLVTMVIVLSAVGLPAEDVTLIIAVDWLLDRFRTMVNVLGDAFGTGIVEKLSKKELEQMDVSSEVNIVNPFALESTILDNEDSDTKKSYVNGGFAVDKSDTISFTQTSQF
As to the kind of experiment: Inhibition of [14C]-glutamic acid uptake by EAAT3 expressed in MDCK or COS-1 cells. To be noted: 1 μM L-[14C]-glutamic acid, 12 minutes. Format: cell-based. The protocol: (§1) In accordance with a known method (Shimamoto, K. et al., Mol. Pharmacol. 53, 195-201, 1998; Bioorg. Med. Chem. Lett. 10, 2407-2410, 2000), the inhibitory activity was assayed as the ability to inhibit the uptake of [^14C]-glutamic acid by human EAAT2 and EAAT3 stably expressed in MDCK (Madin-Darby canine kidney) cells or transiently expressed in COS-1 cells. The glutamate uptake activity was assayed by incubating a mixture of 1 μM of L-[^14C]-glutamic acid with a sample compound at a predetermined concentration for 12 minutes, lysing the cells and then measuring the radioactivity incorporated into the cells with a liquid scintillator. The amount of uptake was expressed in percentage by referring the amount of uptake in the absence of a test compound (i.e., the buffer alone) as 100% and referring the amount of uptake in a sodium-free solution as 0%.

In assay [1] the target is T2, EAAT2 (Homo sapiens, UniProt P43004). As to the kind of experiment: Inhibition of [14C]-glutamic acid uptake by EAAT2 expressed in MDCK or COS-1 cells. Format: cell-based. The conditions noted are these: 1 μM L-[14C]-glutamic acid, 12 minutes. Further details: expressed in transfected cells. The protocol:
as §1

Another assay concerns the target T3, EAAT4 (Homo sapiens, UniProt P48664).
T3 construct: expressed in transfected cells; host or cells: COS-1 cells (membrane preparation)
T3 sequence (P48664 1-564): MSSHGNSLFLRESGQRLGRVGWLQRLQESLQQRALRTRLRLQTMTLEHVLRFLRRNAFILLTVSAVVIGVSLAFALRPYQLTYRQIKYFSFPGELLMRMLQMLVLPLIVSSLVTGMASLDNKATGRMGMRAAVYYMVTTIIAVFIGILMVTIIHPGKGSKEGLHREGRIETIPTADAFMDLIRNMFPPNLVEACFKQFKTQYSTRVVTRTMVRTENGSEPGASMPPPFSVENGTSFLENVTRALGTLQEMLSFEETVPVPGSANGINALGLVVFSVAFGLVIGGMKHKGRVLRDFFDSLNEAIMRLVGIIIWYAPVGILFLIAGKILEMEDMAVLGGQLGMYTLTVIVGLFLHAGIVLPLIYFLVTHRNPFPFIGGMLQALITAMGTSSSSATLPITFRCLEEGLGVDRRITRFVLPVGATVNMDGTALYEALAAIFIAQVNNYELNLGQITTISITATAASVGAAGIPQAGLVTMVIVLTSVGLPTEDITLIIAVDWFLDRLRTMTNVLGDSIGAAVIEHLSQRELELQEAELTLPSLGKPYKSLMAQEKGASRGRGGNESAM
Description: Saturation binding / Scatchard analysis, EAAT4 expressed on COS-1 cells. To be noted: COS-1 cell membrane preparation. The method, then:
(§2) About 20 ml of a medium contained in a T-flask (150 cm^2) was inoculated with COS-1 cells expressing EAAT which were then incubated therein until they reached confluence. After aspiration of the medium, the cells were washed with about 10 ml of phosphate buffered saline (PBS). After adding 4 ml of 0.25% trypsin/1 mM EDTA and allowing to stand for 5 minutes, 6 ml of the medium was added and the cells were collected into a 50 ml tube. Then they were centrifuged at 1200 rpm for 2 minutes and the supernatant was aspirated. The residue was thoroughly homogenized in a binding buffer (50 mM Tris-HCl (pH 7.4), 120 mM NaCl, 5 mM KCl, 2.5 mM CaCl2, 1 mM MgCl2) with the use of a Polytron homogenizer on ice. The homogenate was centrifuged at 30,000×g at 4° C. for 20 minutes. […]
(§3) Then the reaction was ceased by filtering the mixture through a GF/C filter (Whatman) having been soaked in a 0.1% poly-L-lysine hydrobromide solution for an hour followed by washing with 20 mM Tris buffer. After drying the filter, a solid scintillator MeltiLex A (PerkinElmer) was melted-on and the radioactivity was measured with a β-counter. The radioactivity of the sample free from TFB-TBOA was referred to as the total binding amount, while the radioactivity of the sample containing TFB-TBOA was referred to as the nonspecific binding amount. Then the difference was calculated as the specific binding amount.

The target of a further assay is T4, EAAT5 (Homo sapiens, UniProt O00341).
T4 construct: expressed in transfected cells; host or cells: COS-1 cells (membrane preparation)
T4 sequence (O00341 whole entry, species assumed): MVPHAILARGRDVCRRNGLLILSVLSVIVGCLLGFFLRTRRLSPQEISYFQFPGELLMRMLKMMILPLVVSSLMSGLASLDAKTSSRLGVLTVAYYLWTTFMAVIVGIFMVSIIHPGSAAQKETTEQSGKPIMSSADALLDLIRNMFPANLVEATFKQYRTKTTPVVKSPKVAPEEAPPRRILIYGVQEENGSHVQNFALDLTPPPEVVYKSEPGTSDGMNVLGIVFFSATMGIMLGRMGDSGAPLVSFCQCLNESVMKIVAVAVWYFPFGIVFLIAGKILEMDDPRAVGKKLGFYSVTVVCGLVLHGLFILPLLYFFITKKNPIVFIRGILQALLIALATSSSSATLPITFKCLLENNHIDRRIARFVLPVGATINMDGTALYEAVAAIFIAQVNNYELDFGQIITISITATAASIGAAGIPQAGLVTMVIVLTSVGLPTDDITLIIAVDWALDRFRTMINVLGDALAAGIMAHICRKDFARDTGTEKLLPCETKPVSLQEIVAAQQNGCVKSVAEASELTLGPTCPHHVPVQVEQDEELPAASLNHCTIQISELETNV
Description: Saturation binding / Scatchard analysis, EAAT5 expressed on COS-1 cells. To be noted: COS-1 cell membrane preparation. The method, then:
as §2, §3

The target in assay [2] is T2, EAAT2. Description: Saturation binding / Scatchard analysis, EAAT2 expressed on COS-1 cells. Further details: expressed in transfected cells; host or cells: COS-1 cells (membrane preparation). To be noted: COS-1 cell membrane preparation. The protocol: as §2, §3

T2 sequence (P43004 whole entry): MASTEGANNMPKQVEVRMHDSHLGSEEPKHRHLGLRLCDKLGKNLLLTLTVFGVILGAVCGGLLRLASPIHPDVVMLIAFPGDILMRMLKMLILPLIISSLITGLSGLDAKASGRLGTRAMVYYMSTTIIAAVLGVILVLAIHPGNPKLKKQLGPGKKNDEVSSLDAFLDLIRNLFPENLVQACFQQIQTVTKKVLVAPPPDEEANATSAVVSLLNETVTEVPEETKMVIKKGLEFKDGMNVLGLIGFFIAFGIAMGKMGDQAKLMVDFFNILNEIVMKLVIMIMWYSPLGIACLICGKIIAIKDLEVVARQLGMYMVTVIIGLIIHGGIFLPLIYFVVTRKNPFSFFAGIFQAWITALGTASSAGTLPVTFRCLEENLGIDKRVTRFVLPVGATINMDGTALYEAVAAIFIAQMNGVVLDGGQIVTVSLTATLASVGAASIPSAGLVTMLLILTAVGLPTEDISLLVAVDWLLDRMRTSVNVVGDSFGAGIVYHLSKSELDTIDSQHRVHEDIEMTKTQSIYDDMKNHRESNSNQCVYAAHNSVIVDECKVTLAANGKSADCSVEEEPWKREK

As a reminder, the IC50 is the concentration at which inhibition is half-maximal. Read a high IC50 as a need for much substance. Regarding `NC(C(=O)O)C(OCc1ccccc1)C(=O)O` [L-TBOA, threo-β-benzyloxyaspartic acid, reference compound], the IC50 on human EAAT3 and against EAAT2 [1] was 1300 ± 120 nM throughout.

With `N[C@H](C(=O)O)[C@H](OCc1cccc(NC(=O)c2ccc(I)cc2)c1)C(=O)O` [I-BzA-TBOA, (2S,3S)-3-[3-(4-iodobenzoylamino)benzyloxy]aspartic acid], the figures for the IC50 at human EAAT3 and against EAAT2 [1] were 56 ± 1.8 nM and 4.8 ± 0.32 nM, respectively.

For orientation: Kd means the constant that tells how readily two partners part at equilibrium. A high value points to weaker binding. `[3H]CC([3H])c1ccc(C(=O)Nc2cccc(CO[C@H](C(=O)O)[C@H](N)C(=O)O)c2)cc1` (stereo partly drawn) [(^3H)Et-BzA-TBOA]: the Kd on EAAT4 was determined as 13 nM; on EAAT5, 30 nM; on EAAT2 [2] it was 26 nM.

For the molecule `N[C@H](C(=O)O)[C@H](OCc1cccc(NC(=O)c2ccc(C(F)(F)F)cc2)c1)C(=O)O` [TFB-TBOA, reference compound], the IC50 is 28 ± 1.8 nM on human EAAT3 and 1.9 ± 0.1 nM against EAAT2 [1].
